The record followed here is US20120088827A1 (Profectus Biosciences, Inc., priority 2009, published 2012).

For orientation: inhibition means how much of the control response was suppressed.

Experiment [1] deals with T1, c-Rel (Homo sapiens, UniProt Q04864).
T1 sequence (Q04864 1-619): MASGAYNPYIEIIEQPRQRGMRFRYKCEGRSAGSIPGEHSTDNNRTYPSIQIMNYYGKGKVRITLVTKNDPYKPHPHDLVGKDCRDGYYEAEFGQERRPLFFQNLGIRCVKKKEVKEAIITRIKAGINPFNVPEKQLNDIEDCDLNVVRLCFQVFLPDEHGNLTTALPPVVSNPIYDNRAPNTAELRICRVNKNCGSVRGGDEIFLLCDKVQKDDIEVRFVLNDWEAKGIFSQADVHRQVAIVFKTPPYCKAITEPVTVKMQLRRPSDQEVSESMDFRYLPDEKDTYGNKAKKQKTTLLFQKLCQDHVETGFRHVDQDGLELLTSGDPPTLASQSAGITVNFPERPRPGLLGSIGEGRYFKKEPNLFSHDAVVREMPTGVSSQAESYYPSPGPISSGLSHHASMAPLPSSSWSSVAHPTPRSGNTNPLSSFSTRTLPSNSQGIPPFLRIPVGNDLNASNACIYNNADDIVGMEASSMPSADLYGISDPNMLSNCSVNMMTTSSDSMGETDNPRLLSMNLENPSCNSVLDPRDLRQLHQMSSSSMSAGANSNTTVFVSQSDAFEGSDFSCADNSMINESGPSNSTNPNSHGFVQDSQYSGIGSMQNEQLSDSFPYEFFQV
Put plainly: TransAM NF-κB Family DNA Binding ELISA, c-Rel. As for the experimental part: (§1) The binding activity of NF-κB heterodimer or homodimer subunits from activated nuclear extracts or purified recombinant NF-κB proteins exposed to the drug compounds was evaluated using the TransAM NF-κB Family binding ELISA (Active Motif). Approximately 3-5 μg of nuclear extracts from TNFα activated Hela or Raji cells (Active Motif) or 20 ng of purified recombinant proteins (p65 and p50 from Active Motif, p52 from Santa Cruz) were incubated for 1 hour at room temperature with 20 μL drug compounds diluted in Complete Lysis buffer without DTT. Treated samples were then transferred to 30 μL Complete Binding Buffer (with DTT) in microplate wells pre-coated with the NF-κB consensus oligonucleotide. […] The plate was incubated for 1 hour at room temperature with gentle shaking and then washed 3 times with 200 μL 1× Wash Buffer. NF-κB p65, p50, p52, RelB, or c-Rel subunits bound to the plate were detected with 100 μL of the primary antibody (diluted 1:1000 in 1× Antibody Buffer) specific for that subunit. The plate was incubated for 1 hour at room temperature and then washed 3 times with 200 μL 1× Wash Buffer. Next, 100 μL of a HRP conjugated goat anti-rabbit antibody (diluted 1:1,000 in 1× Antibody Buffer) was added to each well. The plate was incubated for 1 hour at room temperature and then washed 4 times with 200 μL 1× Wash Buffer. 100 μL of room temperature Developing Solution was added to each well. The reaction was allowed to develop for 2-10 minutes until a medium dark blue color developed (depending on the subunit activity in the lot of extract or lot of recombinant protein used) and then the reaction was stopped with 100 μL Stop Solution yielding a yellow color. Absorbance was recorded using a Becton-Dickinson DTX 880 Multimode Detector at 450 nm with a reference wavelength subtracted at 620 nm.

Experiment [2] concerns the target T2, RelB (Homo sapiens, UniProt Q01201).
T2 sequence (Q01201 1-579): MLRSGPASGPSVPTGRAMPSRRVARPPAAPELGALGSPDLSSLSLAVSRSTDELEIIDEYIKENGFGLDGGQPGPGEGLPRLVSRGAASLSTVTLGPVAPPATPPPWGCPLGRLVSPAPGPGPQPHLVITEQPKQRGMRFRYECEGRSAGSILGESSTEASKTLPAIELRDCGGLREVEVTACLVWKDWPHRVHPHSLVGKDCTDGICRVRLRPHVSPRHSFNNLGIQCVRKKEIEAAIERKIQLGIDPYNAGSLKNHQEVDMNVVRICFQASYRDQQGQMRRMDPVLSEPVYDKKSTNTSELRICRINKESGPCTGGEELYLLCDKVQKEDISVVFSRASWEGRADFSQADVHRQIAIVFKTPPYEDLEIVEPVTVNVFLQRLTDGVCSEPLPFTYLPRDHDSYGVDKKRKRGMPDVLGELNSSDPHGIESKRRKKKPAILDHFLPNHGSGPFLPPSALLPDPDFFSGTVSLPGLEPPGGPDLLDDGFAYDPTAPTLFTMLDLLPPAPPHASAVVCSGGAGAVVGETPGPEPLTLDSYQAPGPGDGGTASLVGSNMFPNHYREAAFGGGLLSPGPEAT
As to the kind of experiment: TransAM NF-κB Family DNA Binding ELISA, RelB. The method, then:
as §1
In general terms: An ELISA detects its analyte on a solid surface through an enzyme-linked reagent.

Regarding `CC(C)CC(=O)Oc1ccccc1C(=O)NC1=CC(=O)C2OC2C1O` (racemic) [Example 1, (±)-2-(2-hydroxy-5-oxo-7-oxabicyclo[4.1.0]hept-3-en-3-ylcarbamoyl)phenyl 3-methylbutanoate], the inhibition at 5 µM was determined as 1% in experiment [1] and 0% in experiment [2].
On the same counts, the results for `CC(C)OC(=O)Oc1ccccc1C(=O)NC1=CC(=O)C2OC2C1OC(=O)OC(C)C` (racemic) [Example 2, (±)-3-(2-isopropoxycarbonyloxy-benzoylamino)-5-oxo-7-oxa-bicyclo[4.1.0]hept-3-en-2-yl ester isopropyl ester] are 0% and 2%.
On the same counts, the results for `O=C(CC1CCCCC1)Oc1ccccc1C(=O)NC1=CC(=O)C2OC2C1O` (racemic) [Example 3, (±)-2-(2-hydroxy-5-oxo-7-oxabicyclo[4.1.0]hept-3-en-3-ylcarbamoyl)phenyl 2-cyclohexylacetate] are 3% and 3%.
On the same counts, the results for `CCCC(C)C(=O)Oc1ccccc1C(=O)NC1=CC(=O)C2OC2C1O` (racemic) [Example 4, (±)-2-(2-hydroxy-5-oxo-7-oxabicyclo[4.1.0]hept-3-en-3-ylcarbamoyl)phenyl 2-methylpentanoate] are 9% and 5%.
Take `CCCCC(CC)C(=O)Oc1ccccc1C(=O)NC1=CC(=O)C2OC2C1O` (racemic) [Example 5, (±)-2-(2-hydroxy-5-oxo-7-oxabicyclo[4.1.0]hept-3-en-3-ylcarbamoyl)phenyl 2-ethylhexanoate]: the inhibition at 5 µM was determined as 9% in experiment [1] and 5% in experiment [2].
On the same counts, the results for `CC(C)(C)CC(=O)Oc1ccccc1C(=O)NC1=CC(=O)C2OC2C1O` (racemic) [Example 6, (±)-2-(2-hydroxy-5-oxo-7-oxabicyclo[4.1.0]hept-3-en-3-ylcarbamoyl)phenyl 3,3-dimethylbutanoate] are 6% and 3%.
For `CC(C)OC(=O)Oc1ccccc1C(=O)NC1=CC(=O)C2OC2C1O` (racemic) [Example 7, (±)-2-(2-hydroxy-5-oxo-7-oxabicyclo[4.1.0]hept-3-en-3-ylcarbamoyl)phenyl isopropyl carbonate] the same measures were 5% and 0%.
On the same counts, the results for `CC(C)OC(=O)OC1C(NC(=O)c2ccccc2O)=CC(=O)C2OC21` (racemic) [Example 8] are 2% and 2%.
